Type in all cases: in vivo
Test [1] deals with cotton aphids (Aphis gossypii). Put plainly: Test method 1: foliar spray on cucumber seedlings inoculated with cotton aphids (formulation per Formulation Example 1). Set-up: mortality: concentration or dose not given beside the values. The following applies: 120 h, sprayed 10 mL/seedling one day after inoculation, surviving insects examined after 5 days, 25°C, read-out: control value.

Another test relates to Culex pipiens pallens. In words: Test method 12: last-instar larvae of Culex pipiens pallens released into diluted solution. The note with it: 24 h, 30 last-instar larvae, one day later, 25°C. On the procedure:
The test compound is formulated according to the method described in Formulation Example 1, and water is added thereto to prepare a diluted solution containing the test compound at a predetermined concentration. 30 last-instar larvae of Culex pipiens pallens are released into the diluted solution, and the state of the larvae of Culex pipiens is examined one day later to determine the Mortality. The mortality is calculated by the following equation. [formula]

In test [2] the test system is diamondback moth (Plutella xylostella). Put plainly: Test method 10: sprayed cabbage seedling, third instar larvae of diamondback moth released. The note with it: 144 h, sprayed 20 mL/seedling, 10 third instar larvae, after 6 days, 25°C. On the procedure: A test compound is formed into a formulation according to the method described in Formulation Example 5, and water containing 0.03% by volume of Shindain (registered trademark) is added thereto to prepare a diluted solution containing the test compound at a predetermined concentration.
A cabbage (Brassicae oleracea) seedling (3 to 4 true leaf stage) planted in a container is sprayed with the diluted solution at a rate of 20 mL/seedling. Thereafter, 10 third instar larvae of diamondback moth (Plutella xylostella) are released. After 6 days, the number of surviving insects is counted, and the mortality is determined from the following equation. [formula]

In test [3] the test system is cotton aphids (Aphis gossypii). In words: Test method 11: foliar spray on cucumber seedlings inoculated with cotton aphids (formulation per Formulation Example 5). The following applies: 120 h, sprayed 10 mL/seedling one day after inoculation, after 5 days, 25°C, read-out: control value.
Test [4] concerns diamondback moth (Plutella xylostella). Put plainly: Test method 4: sprayed cabbage foliage cut out, second instar larvae of diamondback moth released. The note with it: foliar, 120 h, sprayed 20 mL/seedling, five second instar larvae, after 5 days, 25°C. Here is the method:
A test compound is formed into a formulation according to the method described in Formulation Example 1, and water containing 0.03% by volume of Shindain (registered trademark) is added thereto to prepare a diluted solution containing the test compound at a predetermined concentration.
A cabbage (Brassicae oleracea) seedling (2 to 3 true leaf stage) planted in a container is sprayed with the diluted solution at a rate of 20 mL/seedling. Thereafter, the foliage portion of the seedling is cut out and placed in a container on which filter paper is laid. Thereto are released five second instar larvae of diamondback moth (Plutella xylostella). After 5 days, the number of surviving insects is counted, and the mortality is determined from the following equation. [formula]

A further test has as its system Aphis gossypii. In words: Test method 2: soil irrigation of cucumber seedlings, later inoculated with Aphis gossypii. The following applies: 144 h, irrigated 5 mL/seedling, inoculated after 7 days, surviving insects examined after 6 days, 25°C, read-out: control value. Here is the method:
The test compound is formulated according to the method described in Formulation Example 5, and water is added thereto to prepare a diluted solution containing the test compound at a predetermined concentration. A cucumber (Cucumis sativus) seedling (second true leaf stage) planted in a container is irrigated with the diluted solution at a rate of 5 mL/seedling. After 7 days, the leaf surface of this seedling is inoculated with about 30 Aphis gossypii (whole stage). After 6 days, the number of surviving insects is examined, and the control value is determined by the following formula. [formula] • Characters in the formula represent the following meanings. • Cb: number of test insects in a non-treated section • Cai: number of surviving insects in a non-treated section at the time of investigation • Tb: number of test insects in a treated section • Tai: number of surviving insects in a treated section at the time of investigation Herein, the non-treated section means a section that is subjected to the same operation as that of the treated section except that the test compound is not used.

Each structure is given as a SMILES string.

Regarding `CCSc1c(N(C)C(=O)c2cc(C(F)(F)F)nn2C)nc2ccc(I)cn12` [compound 3], the mortality at 500 ppm in test [1] is ≥ 90%; in test [4], ≥ 80%. In addition, in the test on Culex pipiens pallens, the mortality at 3.5 ppm is > 90%. In addition, the mortality at 200 ppm in test [2] is ≥ 80%; in test [3], ≥ 90%. In test [3], the mortality at 50 ppm was ≥ 90%.

Take `CCSc1c(N(C)C(=O)c2ccc(C(F)(F)F)o2)nc2ccc(I)cn12` [compound 5]: the mortality at 500 ppm in test [1] was ≥ 90%. Moreover, the mortality at 3.5 ppm with Culex pipiens pallens is > 90%. Moreover, in test [3], the mortality at 50 ppm is ≥ 90% and the mortality at 200 ppm is ≥ 90%. Besides, in test [4], the mortality at 500 ppm was ≥ 80%.

For the compound `CCSc1c(N(C)C(=O)c2cnc(C(F)(F)F)s2)nc2ccc(Br)cn12` [compound 8], the mortality at 500 ppm in test [1] was ≥ 90%. Besides, in the test on Culex pipiens pallens, the mortality at 3.5 ppm was > 90%. In addition, in test [3], the mortality at 50 ppm is ≥ 90% and the mortality at 200 ppm was ≥ 90%. The mortality at 500 ppm in test [4] was ≥ 80%.

With `CCSc1c(N(C)C(=O)c2cnc(C(F)(F)F)s2)nc2ccc(C(F)(F)F)cn12` [compound 9], the mortality at 500 ppm in test [1] is ≥ 90%. For the same compound, in the test with Culex pipiens pallens, the mortality at 3.5 ppm was > 90%. In test [3], the mortality at 50 ppm was ≥ 90% and the mortality at 200 ppm is ≥ 90%. Moreover, the mortality at 500 ppm in test [4] is ≥ 80%.

As to `CCSc1c(N(C)C(=O)c2cnc(C(F)(F)F)s2)nc2cc(I)ccn12` [compound 10], the values for the mortality at 500 ppm in test [1] and in test [4] were ≥ 90% and ≥ 80%, respectively. For the same compound, the mortality at 3.5 ppm in the test on Culex pipiens pallens is > 90%. Further, the values for the mortality at 200 ppm in test [2] and in test [3] were ≥ 80% and ≥ 90%, respectively. Also, the mortality at 50 ppm in test [3] is ≥ 90%.

As for `CCSc1c(N(C)C(=O)c2cnc(C(F)(F)F)s2)nc2cc(Br)ccn12` [compound 11], in test [1], the mortality at 500 ppm is ≥ 90%. Further, in the test on Culex pipiens pallens, the mortality at 3.5 ppm was > 90%. In test [3], the mortality at 50 ppm is ≥ 90% and the mortality at 200 ppm is ≥ 90%. In the test with Aphis gossypii, the mortality at 1000 ppm is ≥ 90%. Further, the mortality at 500 ppm in test [4] was ≥ 80%.

Turning to `CCSc1c(N(C)C(=O)c2nc(C(F)(F)F)cs2)nc2ccc(I)cn12` [compound 13], the mortality at 500 ppm in test [1] is ≥ 90%; in test [4], ≥ 80%. In the test with Culex pipiens pallens, the mortality at 3.5 ppm is > 90%. For the same compound, in test [3], the mortality at 200 ppm is ≥ 90%.

In the case of `CCSc1c(N(C)C(=O)c2ccn(C(F)F)n2)nc2ccc(I)cn12` [compound 19], the mortality at 500 ppm in test [1] was ≥ 90%. In the test with Culex pipiens pallens, the mortality at 3.5 ppm is > 90%. Moreover, in test [3], the mortality at 50 ppm is ≥ 90% and the mortality at 200 ppm is ≥ 90%.

As to `CCSc1c(N(C)C(=O)c2cnn(C(F)F)c2)nc2ccc(I)cn12` [compound 24], the figures for the mortality at 500 ppm in test [1] and in test [4] were ≥ 90% and ≥ 80%, respectively. Further, the mortality at 3.5 ppm in the test with Culex pipiens pallens was > 90%. Also, the mortality at 200 ppm in test [3] was ≥ 90%.

With `CCSc1c(N(C)C(=O)c2cn(CC(F)(F)F)nn2)nc2ccc(I)cn12` [compound 27], in test [1], the mortality at 500 ppm was ≥ 90%. For the same compound, the mortality at 3.5 ppm with Culex pipiens pallens is > 90%. The mortality at 200 ppm was ≥ 80% in test [2] and ≥ 90% in test [3].

For `CCS(=O)(=O)c1c(N(C)C(=O)c2cc(C(F)(F)F)nn2C)nc2ccc(I)cn12` [compound 36], the mortality at 50 ppm in test [2] (50 ppm) was ≥ 80%; in test [3], ≥ 90%. Further, the mortality at 200 ppm in test [2] was ≥ 80%; in test [3], ≥ 90%.

Take `CCS(=O)(=O)c1c(N(C)C(=O)c2ccc(C(F)(F)F)o2)nc2ccc(I)cn12` [compound 39]: the mortality at 500 ppm in test [1] is ≥ 90%. For the same compound, in the test on Culex pipiens pallens, the mortality at 3.5 ppm was > 90%. In addition, in test [3], the mortality at 50 ppm is ≥ 90% and the mortality at 200 ppm is ≥ 90%. Further, the mortality at 1000 ppm in the test with Aphis gossypii was ≥ 90%. The mortality at 500 ppm in test [4] was ≥ 80%.

Regarding `CC[S+]([O-])c1c(N(C)C(=O)c2cnc(C(F)(F)F)s2)nc2ccc(Br)cn12` (centres unmarked) [compound 41], the figures for the mortality at 500 ppm in test [1] and in test [4] were ≥ 90% and ≥ 80%, respectively. In addition, the mortality at 200 ppm was ≥ 80% in test [2] and ≥ 90% in test [3]. In test [3], the mortality at 50 ppm was ≥ 90%. The mortality at 1000 ppm with Aphis gossypii was ≥ 90%.

On to `CC[S+]([O-])c1c(N(C)C(=O)c2cnc(C(F)(F)F)s2)nc2ccc(C(F)(F)F)cn12` (centres unmarked) [compound 43], for which the mortality at 500 ppm in test [1] is ≥ 90%; in test [4], ≥ 80%. Further, the mortality at 200 ppm is ≥ 80% in test [2] and ≥ 90% in test [3]. For the same compound, in test [3], the mortality at 50 ppm was ≥ 90%. Further, the mortality at 1000 ppm with Aphis gossypii was ≥ 90%.

For the compound `CCS(=O)(=O)c1c(N(C)C(=O)c2cnc(C(F)(F)F)s2)nc2cc(I)ccn12` [compound 46], in test [1], the mortality was ≥ 90%. Besides, the mortality at 3.5 ppm in the test with Culex pipiens pallens is > 90%. Further, in test [3], the mortality at 50 ppm was ≥ 90% and the mortality at 200 ppm is ≥ 90%. In the test on Aphis gossypii, the mortality at 1000 ppm is ≥ 90%. In addition, the mortality at 500 ppm in test [4] was ≥ 80%.

For `CC[S+]([O-])c1c(N(C)C(=O)c2cnc(C(F)(F)F)s2)nc2cc(Br)ccn12` (centres unmarked) [compound 47], the mortality at 500 ppm in test [1] was ≥ 90%; in test [4] it was ≥ 80%. The mortality at 200 ppm in test [2] is ≥ 80%; in test [3] it was ≥ 90%. Moreover, the mortality at 50 ppm in test [3] was ≥ 90%. In the test on Aphis gossypii, the mortality at 1000 ppm is ≥ 90%.

In the case of `CCS(=O)(=O)c1c(N(C)C(=O)c2nc(C(F)(F)F)cs2)nc2ccc(I)cn12` [compound 50], the mortality at 500 ppm in test [4] was ≥ 80%.

As for `CCS(=O)(=O)c1c(N(C)C(=O)c2cc(Br)n(C)n2)nc2ccc(I)cn12` [compound 53], in test [1], the mortality at 500 ppm was ≥ 90%. In addition, in test [3], the mortality at 50 ppm is ≥ 90% and the mortality at 200 ppm was ≥ 90%. Moreover, the mortality at 500 ppm in test [4] was ≥ 80%.

Consider `CCS(=O)(=O)c1c(N(C)C(=O)c2cc(OC(F)F)n(C)n2)nc2ccc(I)cn12` [compound 55], for which the mortality at 3.5 ppm in the test with Culex pipiens pallens is > 90%.

As for `CCS(=O)(=O)c1c(N(C)C(=O)c2ccn(C3CC3)n2)nc2ccc(I)cn12` [compound 57], the mortality at 500 ppm in test [1] is ≥ 90%; in test [4], ≥ 80%. For the same compound, the mortality at 3.5 ppm in the test with Culex pipiens pallens was > 90%. For the same compound, in test [3], the mortality at 200 ppm is ≥ 90%.

As to `CC[S+]([O-])c1c(N(C)C(=O)c2cnn(C(F)(F)F)c2)nc2ccc(I)cn12` (centres unmarked) [compound 60], the mortality at 500 ppm in test [1] was ≥ 90%; in test [4], ≥ 80%.

On to `CCS(=O)(=O)c1c(N(C)C(=O)c2cnn(C(F)(F)F)c2)nc2ccc(I)cn12` [compound 61], for which the mortality at 500 ppm in test [1] was ≥ 90%; in test [4] it was ≥ 80%.

Take `CCS(=O)(=O)c1c(N(C)C(=O)c2cnn(C(F)F)c2)nc2ccc(I)cn12` [compound 63]: the mortality at 500 ppm in test [1] was ≥ 90%; in test [4], ≥ 80%.

For the compound `CCS(=O)(=O)c1c(N(C)C(=O)c2cnn(C3CC3)c2)nc2ccc(I)cn12` [compound 64], the mortality at 500 ppm is ≥ 90% in test [1] and ≥ 80% in test [4]. Besides, in the test with Aphis gossypii, the mortality at 1000 ppm is ≥ 90%.

With `CCS(=O)(=O)c1c(N(C)C(=O)c2cn(CC(F)(F)F)nn2)nc2ccc(I)cn12` [compound 67], the mortality at 500 ppm in test [1] was ≥ 90%. Besides, the mortality at 3.5 ppm with Culex pipiens pallens is > 90%. In test [3], the mortality at 50 ppm was ≥ 90% and the mortality at 200 ppm was ≥ 90%. Besides, in the test with Aphis gossypii, the mortality at 1000 ppm is ≥ 90%.

(Values after patent publication EP4596547A1, “HETEROCYCLIC COMPOUND AND HARMFUL ARTHROPOD-CONTROLLING COMPOSITION CONTAINING SAME” (priority 2022, dated 2024).)
